From US6878751B1, “Administration of resveratrol to treat inflammatory respiratory disorders” (Imperial College of Science Technology and Medicine, priority 2000, dated 2005)

Key:
[1] = test system: NF-κB dependent transcription; assay: NF-κB luciferase reporter in stably transfected A549 cells; assay type: cell-based, human
Description: (§1) The expression of inflammatory genes was then evaluated in cells transformed with luciferase reporter genes containing sites for transcription factors (Tf, Tfs). The A549 cells were stably transfected by routine methods with luciferase reporters containing the transcription factors NF-κB, TRE (AP-1, TPA responsive element) and CRE (cAMP responsive element). Luciferase activity of cell lysates resuspended in […] cell lysis buffer mixed (40 mml resuspended lysate: 40 mml assay reagent) was measured using the Luciferase Assay System (Promega), with emitted light measured by a Turner DesignsTD-20/20 luminometer (Steptech Instruments Ltd., Stevenage, U.K.)

[2] = test system: CRE dependent transcription; assay: CRE luciferase reporter in stably transfected A549 cells; assay type: cell-based, human
Description: as §1

EC50 ([1]; Homo sapiens, read-out: EC50 for inhibition of NF-κB dependent transcription): 16 ± 12 µM
EC50 ([2]; Homo sapiens, read-out: EC50 for inhibition of CRE dependent transcription): 3.4 ± 3 µM
SMILES: C[C@@H]1C[C@H]2[C@@H]3CCC4=CC(=O)C=C[C@]4(C)[C@@]3(F)[C@@H](O)C[C@]2(C)[C@@]1(O)C(=O)CO [Dexamethasone, dexamethasone, reference compound]
extent of inhibition of NF-κB dependent transcription [1]: 41%
extent of inhibition of CRE dependent transcription [2]: 62%
